{"source": "patent US8329859B2", "about": "“Peptides that home to tumor lymphatic vasculature and methods of using same” (Sanford-Burnham Medical Research Institute, priority 2001, dated 2012)", "key": {"[1]": {"tested_on": "primary MDA-MB-435 breast carcinoma tumor cell suspensions", "assay": "Ex vivo phage binding to primary 435 tumor cell suspensions", "set-up": "species or system human", "conditions": "synthetic peptide added", "protocol": "Selected phage were enriched 30-fold relative to nonrecombinant T7 phage in the tumor. Forty-eight individual clones were randomly chosen from the in vivo selected pool, and the inserts sequenced as described below. Individual clones were assayed for the ability to bind cultured 435 cells as well as cell suspensions prepared from 435 tumors.\nXenografts, tumor cell suspensions and ex vivo selections were performed essentially as follows. Nude Balb/c mice were subcutaneously injected with 1×10^6 MDA-MB-435 tumor cells to generate breast carcinoma xenografts. Human MDA-MB-435 breast carcinoma xenograft tumors were harvested 9 to 12 weeks after implantation, and tumor cell suspensions prepared using collagenase (0.5 mg/ml, Sigma).\nThe suspension was subjected to serial washes with 1% BSA in DME to remove unbound phage. Blood vessel endothelial cells were depleted from the tumor cell mixture using magnetic beads (Dynal; Lake Success, N.Y.) coated with anti-mouse CD31 antibody (MEC 13.3; Pharminogen; San Diego, Calif.) according to the manufacturer's instructions. Phage bound to the CD31-negative cell population were rescued by adding bacteria, and the rescued phage titered and amplified in liquid culture."}, "[2]": {"tested_on": "MDA-MB-435 tumor lymphatic vasculature", "assay": "Localization in 435 tumors after tail vein injection, with blood vessel and lymphatic marker staining", "type": "in vivo, nude mice", "protocol": "Localization of phage displaying SEQ ID NO: 1 was analyzed with anti-T7 phage antibody following intravenous injection of CGNKRTRGC (SEQ ID NO: 1)-displaying phage into the tail vein of nude mice carrying an MDA-MB-435 tumor. […] Similar results were obtained by a phage overlay assay in which phage were added onto frozen tissue sections, rather than being injected into the mice.\nAn anti-T7 antiserum was prepared by immunizing New Zealand white rabbits with 10^10 pfu of T7 nonrecombinant phage (Novagen). The initial immunization performed in complete Freund's Adjuvant, while boosters were administered in incomplete Freund's Adjuvant. The antibody titer was estimated by ELISA, and the antiserum was absorbed against BLT5615 bacterial and mouse liver lysates. Phage were detected using anti-T7 phage antiserum (1:1000 dilution) and goat anti-rabbit secondary antibody conjugated to fluorescein.\n(§1) Detection of fluorescent peptides and biotin-conjugated tomato lectin was performed as follows. Fluorescein-conjugated peptide CGNKRTRGC (SEQ ID NO: 1) was prepared as described above. The peptide (100 μg in 200 μl of PBS) was injected into the tail vein of mice bearing MDA-MB-435 breast carcinoma tumors. After 10 minutes, biotin-conjugated lycopersicon esculentum (tomato) lectin (100 μg in 200 μl of PBS; Vector; Burlingame, Calif.) was also injected into the tail vein. After 5 minutes, the mouse was perfused through the heart with 4% paraformaldehyde. Tissues were removed and frozen in O.C.T. embedding medium (Tissue-Tek; Torrence, Calif.). Blood vessels were visualized by detecting the tomato lectin with streptavidin-conjugated Alexa 594 (Molecular Probes; Eugene, Oreg.). Green staining indicated the presence of peptide SEQ ID NO: 1, while red staining indicated the presence of tomato lectin.\nMDA-MB-435 breast carcinoma tumors contain lymphatic vessels that are positive for markers of lymphatic endothelial cells. To determine whether CGNKRTRGC (SEQ ID NO: 1) homed to the 435 tumor lymphatics, tumor sections were stained with the lymphatic markers VEGFR-3 and LYVE-1. Lymphatic vessels were visualized using a rat anti-mouse VEGFR-3 antibody or with rabbit anti-LYVE-1 antibody produced as described below.\nLYVE-1 antibody was produced by immunizing New Zealand White rabbits with a peptide encoding the 19 most C-terminal residues of mouse LYVE-1 (Prevo et al., J. Biol. Chem. 276:19420 (2001)) conjugated to keyhole limpet hemocyanin (KLH; Pierce; Iselin, N.J.). The initial immunization was done in complete Freund's Adjuvant, with boosters performed in incomplete Freund's Adjuvant. Specific antibody was obtained following affinity purification with the peptide coupled to Sulfolink Gel (Pierce). Tissues were processed for fifteen minutes following injection with fluorescein-conjugated peptide using rat anti-mouse anti-VEGFR-3, and rabbit anti-LYVE-1. The anti-LYVE-1 antibody was used at a 1:500 dilution on cryo sections, followed by detection with goat anti-rabbit secondary antibody conjugated to Alexa 594 (Molecular Probes)."}, "normal tissues": {"tested_on": "normal tissues", "assay": "Localization of fluorescent peptide in normal tissues after intravenous injection", "type": "in vivo, mouse", "protocol": "Several normal tissues also were studied for localization of the CGNKRTRGC (SEQ ID NO: 1) peptide.\nas §1"}, "[3]": {"tested_on": "Cultured MDA-MB-435 cells", "assay": "Trypan blue cytotoxicity in cultured MDA-MB-435 cells", "type": "cell-based", "conditions": "FIG. 7", "protocol": "Cultured MDA-MB-435 cells were incubated with a control peptide (CGEKRTRGC; SEQ ID NO: 3) or with CGNKRTRGC (SEQ ID NO: 1) at 37° C. for 1, 2 or 4 hours. After staining with trypan blue, which is taken up by cells that are dead or dying, the total number of cells were counted, and the percentage of trypan blue stained cells determined. […] In particular, after four hours incubation, at least 7-fold greater trypan blue uptake was evident in cell cultures incubated with peptide SEQ ID NO: 1 as compared to cultures incubated with control peptide."}, "[4]": {"tested_on": "MDA-MB-435 human breast carcinoma cell xenografts", "assay": "Tumor treatment study", "type": "in vivo, nude mice", "conditions": "67 nmol intravenously twice a week; after about two weeks of treatment; FIG. 8; listed as peptide SEQ ID NO: 1", "protocol": "A tumor treatment study was performed using MDA-MB-435 human breast carcinoma cell xenografts prepared by subcutaneously injecting 1×10^6 cells in 200 μl PBS into nude mice. Mice (five per group) were treated intravenously twice a week with 67 nmol CGNKRTRGC peptide (SEQ ID NO: 1) or with PBS starting four weeks after tumor implantation. Tumor volumes were measured once a week for four weeks."}, "mitochondrial membranes": {"tested_on": "mitochondrial membranes", "conditions": "10 μM; cited from earlier work"}, "[5]": {"tested_on": "cultured MDA-MB-435 tumor cells", "assay": "Internalization and subcellular localization in cultured MDA-MB-435 cells", "type": "cell-based, human", "conditions": "one to five hours at 37° C., FIG. 2", "protocol": "A fluorescein-conjugated CGNKRTRGC (SEQ ID NO: 1) peptide was utilized to further analyze cellular internalization and subcellular localization. […] Natl. Acad. Sci. 97:13003 (2000). The fluorescein-conjugated peptides were incubated with cultured MDA-MB-435 tumor cells for one to five hours at 37° C. […] Cultured 435 cells also internalized the CGNKRTRGC (SEQ ID NO: 1) phage, although the phage accumulated in the cytoplasm of the cells."}, "cultured KRIB cells": {"tested_on": "cultured KRIB cells", "assay": "Phage binding and peptide internalization in cultured KRIB cells", "type": "cell-based"}}, "note": "Entries after “also recorded” stand apart in the source; their conditions may differ. No end group written: not given here."}
{"substance": "CGNKRTRGC [CGNKRTRGC (SEQ ID NO: 1) peptide]", "values": [{"measurement": "inhibition of binding of CGNKRTRGC phage by synthetic peptide", "setting": "[1]", "result": "inhibited binding"}, {"measurement": "co-localization with macrophage marker F4/80", "setting": "[2]; VEGFR-3 positive single cells in tumor", "result": "lack of co-localization"}, {"measurement": "localization within 435 tumors after tail vein injection", "setting": "[2]; mouse, in vivo", "result": "accumulated in VEGFR-3 positive single cells within the tumor"}, {"measurement": "localization in normal tissues", "setting": "normal tissues", "result": "Fluorescence was seen only in the kidney tubuli"}, {"measurement": "trypan blue uptake relative to cultures incubated with control peptide", "setting": "[3]; four hours incubation, 37° C.", "result": "at least 7 fold"}, {"measurement": "cytotoxic effect compared to control peptide SEQ ID NO: 3", "setting": "[3]; later time points of 1, 2 or 4 hours, listed as peptide SEQ ID NO: 1", "result": "significantly enhanced cytotoxic effect; also recorded: significantly enhanced cytotoxicity"}, {"measurement": "mean tumor volume compared to mice administered PBS alone", "setting": "[4]", "result": "at least several fold less; also recorded: slowed significantly"}]}
{"substance": "D(KLAKLAK)2", "values": [{"measurement": "mitochondrial swelling", "setting": "mitochondrial membranes", "result": "marked mitochondrial swelling"}]}
{"substance": "fluorescein-conjugated CGNKRTRGC (SEQ ID NO: 1) peptide: fluorescein-conjugated CGNKRTRGC peptide (cysteine pairing not given here; also: fluorescein conjugate, site not given here)", "values": [{"measurement": "uptake and subcellular localization of fluorescein-conjugated peptide", "setting": "[5]; listed as fluorescein-conjugated SEQ ID NO: 1", "result": "internalized and translocated to the nucleus"}, {"measurement": "uptake and subcellular localization of fluorescein-conjugated peptide", "setting": "[5]; listed as fluorescein-labeled peptide SEQ ID NO: 1", "result": "internalized"}, {"measurement": "co-localization with lymphatic markers VEGFR-3 and LYVE-1", "setting": "[2]; 435 tumor tissue, FIG. 5", "result": "co-localized"}, {"measurement": "internalization and nuclear transport in vivo", "setting": "[2]; 435 tumor tissue, FIG. 5", "result": "internalized and transported into nuclei"}, {"measurement": "internalization and nuclear transport in vivo", "setting": "[2]; 435 tumor tissue, FIG. 5, listed as fluorescein-conjugated SEQ ID NO:1", "result": "internalized and transported into nuclei"}, {"measurement": "internalization and nuclear transport in vivo", "setting": "[2]; 435 tumor tissue, FIG. 5, listed as fluorescein-conjugated peptide (SEQ ID NO: 1)", "result": "accumulated in the nuclei lining the vessel-like structures"}, {"measurement": "co-localization with blood vessels labeled with biotin-conjugated tomato lectin", "setting": "[2]; FIGS. 3A-C", "result": "notable lack of co-localization"}, {"measurement": "blood vessel markers Meca-32 and CD31 on the vessels in which the substance localized", "setting": "[2]; mouse, in vivo", "result": "negative"}, {"measurement": "localization within 435 tumors after tail vein injection", "setting": "[2]; mouse, in vivo", "result": "localized in vessel-like structures and in individual cells within the tumor"}, {"measurement": "internalization of fluorescein-labeled peptide by cultured KRIB cells", "setting": "cultured KRIB cells", "result": "internalized"}]}
